Holding throughout (format): cell-based, mouse
Assay [1] concerns NIH3T3 cells overexpressing caspase-2. In words: MTT cell viability, caspase-2 overexpressing cells vs parental line. As to conditions: caspase-2 high-expressing cells / parental cell line, 3 to 4 days. The protocol: (§1) With regard to the function-known genes, the genes shown in the left column of Table 2 were used. With regard to the drugs, those shown in Table 1 were dissolved in DMSO to an extent of 100-fold of the maximum concentration for the search of the drugs and used. With regard to the cells, incubated NIH3T3 or ras-NIH3T3 cells were used.
(§2) Full-length cDNA of each function-known genes was incorporated into an expression vector (pRc-CMV, etc.) and transfected into NIH3T3 cells by a common method. Transformed cells were isolated using the resistance to G-418 as an index and the expression of the transfected gene in each cell was investigated by Western blotting method to select a highly expressing line.
(§3) Cell viabilities were measured according to the following procedures.
(§4) 1) From the 2nd to the 11th rows of a 96-well plate were filled with DMEM (50 μl). The 12th row was filled with 100 μl of DMEM.
(§5) 2) The 1st row was filled with 98 μl of DMEM.
(§6) 3) Drugs (2 μl each) were added into the 1st row.
(§7) 4) Continuous double-dilution was conducted from the 1st to the 9th rows. Fifty μl were taken out from the 9th row and discarded. The plate was preserved in a CO2 incubator.
(§8) 5) Cells (each high-expressing cells and the parental cell line) were detached from the medium using a trypsin solution, suspended in 10% CS-DMEM and transferred to a test tube and cell numbers (cell/ml) were counted.
(§9) 6) The cells were diluted to a concentration of 1×10^5 cells/ml, and 50 μl of the cell suspension were added to the 1st to the 11th rows of the plate followed by gently stirring.
(§10) 7) The plate was transferred to the CO2 incubator and incubated for 3 to 4 days.
(§11) 8) MTT (5 mg/ml in PBS) (10 μl) was added to the 1st to the 12th rows of the plate and incubated in the CO2 incubator at 37° C. for 4 hours.
(§12) 9) A reaction stop solution (0.04N HCl in isopropanol) (150 μl) was added followed by mixing well and being allowed to stand at room temperature for about 2 hours.
(§13) 10) Coloration of formazan which was a metabolite of the MTT dye was measured using a microplate reader. The measurement wavelength was 574 nm and the reference wavelength was 655 nm. The 10th and the 11th rows of the plate were 100% controls and the 12th row was a 0% control.
(§14) As an index for the sensitivity of highly gene-expressing cells and the parental cell line to various drugs, each of the IC40 values thereof was specified and ratios of the IC40 values were calculated. FIG. 2 and FIG. 3 are the examples where ratios of IC40 values were calculated from a curve showing the dependency on the concentration of the chemical versus the viability. After that, logarithmic values of ratios of IC40 values were calculated from each gene.

The subject of assay [2] is NIH3T3 cells overexpressing HSP4O. In words: MTT cell viability, HSP4O overexpressing cells vs parental line. Conditions: HSP4O high-expressing cells / parental cell line, 3 to 4 days. The protocol: as §1, §2, §3, §4, §5, §6, §7, §8, §9, §10, §11, §12, §13, §14
Assay [3] has as its system NIH3T3 cells overexpressing PKCalpha-KN. Description: MTT cell viability, PKCalpha-KN overexpressing cells vs parental line. As to conditions: 3 to 4 days. The protocol: as §1, §2, §3, §4, §5, §6, §7, §8, §9, §10, §11, §12, §13
(§15) As an index for the sensitivity of highly gene-expressing cells and the parental cell line to various drugs, each of the IC40 values thereof was specified and ratios of the IC40 values were calculated. […] After that, logarithmic values of ratios of IC40 values were calculated from each gene.

Assay [4] has as its system NIH3T3 cells overexpressing coup. Description: MTT cell viability, coup overexpressing cells vs parental line. As to conditions: coup high-expressing cells / parental cell line, 3 to 4 days. As to the method:
as §1, §2, §3, §4, §5, §6, §7, §8, §9, §10, §11, §12, §13, §14

The subject of assay [5] is NIH3T3 cells overexpressing PDGF-R. In words: MTT cell viability, PDGF-R overexpressing cells vs parental line. Conditions: PDGF-R high-expressing cells / parental cell line, 3 to 4 days. As to the method:
as §1, §2, §3, §4, §5, §6, §7, §8, §9, §10, §11, §12, §13, §14

The test system of assay [6] is NIH3T3 cells overexpressing caspase-3. In words: MTT cell viability, caspase-3 overexpressing cells vs parental line. As to conditions: caspase-3 high-expressing cells / parental cell line, 3 to 4 days. The protocol: as §1, §2, §3, §4, §5, §6, §7, §8, §9, §10, §11, §12, §13, §15
Assay [7] deals with NIH3T3 cells overexpressing Regucalcin. Description: MTT cell viability, Regucalcin overexpressing cells vs parental line. Conditions: Regucalcin high-expressing cells / parental cell line, 3 to 4 days. The protocol: as §1, §2, §3, §4, §5, §6, §7, §8, §9, §10, §11, §12, §13, §14
Assay [8] relates to NIH3T3 cells overexpressing p38-DN. Description: MTT cell viability, p38-DN overexpressing cells vs parental line. As to conditions: p38-DN high-expressing cells / parental cell line, 3 to 4 days. As to the method: as §1, §2, §3, §4, §5, §6, §7, §8, §9, §10, §11, §12, §13, §15
Assay [9] relates to NIH3T3 cells overexpressing CBP8. In words: MTT cell viability, CBP8 overexpressing cells vs parental line. As to conditions: CBP8 high-expressing cells / parental cell line, 3 to 4 days. As to the method:
as §1, §2, §3, §4, §5, §6, §7, §8, §9, §10, §11, §12, §13, §14

The subject of assay [10] is NIH3T3 cells overexpressing m-calpain. In words: MTT cell viability, m-calpain overexpressing cells vs parental line. Conditions: m-calpain high-expressing cells / parental cell line, 3 to 4 days. The protocol:
as §1, §2, §3, §4, §5, §6, §7, §8, §9, §10, §11, §12, §13, §15

The test system of assay [11] is NIH3T3 cells overexpressing caspase-1. Description: MTT cell viability, caspase-1 overexpressing cells vs parental line. As to conditions: caspase-1 high-expressing cells / parental cell line, 3 to 4 days. As to the method: as §1, §2, §3, §4, §5, §6, §7, §8, §9, §10, §11, §12, §13, §15
The test system of assay [12] is NIH3T3 cells overexpressing HNF1. In words: MTT cell viability, HNF1 overexpressing cells vs parental line. Conditions: HNF1 high-expressing cells / parental cell line, 3 to 4 days. The protocol: as §1, §2, §3, §4, §5, §6, §7, §8, §9, §10, §11, §12, §13, §15
Assay [13] relates to NIH3T3 cells overexpressing Ki-ras. In words: MTT cell viability, Ki-ras overexpressing cells vs parental line. Conditions: Ki-ras high-expressing cells / parental cell line, 3 to 4 days. The protocol:
as §1, §2, §3, §4, §5, §6, §7, §8, §9, §10, §11, §12, §13, §14

Assay [14] relates to NIH3T3 cells overexpressing N-ras. In words: MTT cell viability, N-ras overexpressing cells vs parental line. Conditions: N-ras high-expressing cells / parental cell line, 3 to 4 days. As to the method: as §1, §2, §3, §4, §5, §6, §7, §8, §9, §10, §11, §12, §13, §14
Assay [15] relates to NIH3T3 cells overexpressing HNF3b. In words: MTT cell viability, HNF3b overexpressing cells vs parental line. As to conditions: HNF3b high-expressing cells / parental cell line, 3 to 4 days. As to the method: as §1, §2, §3, §4, §5, §6, §7, §8, §9, §10, §11, §12, §13, §15
Assay [16] relates to NIH3T3 cells overexpressing CaMKIIa. Description: MTT cell viability, CaMKIIa overexpressing cells vs parental line. As to conditions: CaMKIIa high-expressing cells / parental cell line, 3 to 4 days. The protocol: as §1, §2, §3, §4, §5, §6, §7, §8, §9, §10, §11, §12, §13, §15
In assay [17] the test system is NIH3T3 cells overexpressing Ha-ras. In words: MTT cell viability, drug sensitivity of Ha-ras overexpressing cells vs parental line. As to conditions: Ha-ras high-expressing cells / parental cell line, 3 to 4 days. As to the method: as §1, §2, §3, §4, §5, §6, §7, §8, §9, §10, §11, §12, §13, §15
For assay [18], the system named is NIH3T3 cells overexpressing HNF4. In words: MTT cell viability, HNF4 overexpressing cells vs parental line. As to conditions: HNF4 high-expressing cells / parental cell line, 3 to 4 days. The protocol:
as §1, §2, §3, §4, §5, §6, §7, §8, §9, §10, §11, §12, §13, §15

Assay [19] concerns NIH3T3 cells overexpressing cystatin E. Description: MTT cell viability, cystatin E overexpressing cells vs parental line. Conditions: cystatin E high-expressing cells / parental cell line, 3 to 4 days. As to the method:
as §1, §2, §3, §4, §5, §6, §7, §8, §9, §10, §11, §12, §13, §14

Assay [20] deals with NIH3T3 cells overexpressing p16/INK4A. In words: MTT cell viability, p16/INK4A overexpressing cells vs parental line. Conditions: p16/INK4A high-expressing cells / parental cell line, 3 to 4 days. The protocol: as §1, §2, §3, §4, §5, §6, §7, §8, §9, §10, §11, §12, §13, §14
Where [21] appears, read: PKCalpha-KN (first of two lines) high-expressing cells / parental cell line.
Setting [22] is: PKCalpha-KN (second of two lines) high-expressing cells / parental cell line.

Take `C=C[C@@]1(C)CC(=O)[C@]2(O)[C@@]3(C)[C@@H](O)CCC(C)(C)[C@@H]3[C@H](O)[C@H](OC(C)=O)[C@@]2(C)O1` [Forskolin, forskolin]: the “logarithmic value of ratio of IC40 values” is −0.34 in assay [1]; −0.39 in assay [2]; −0.47 in assay [3] (setting [21]); 0.00 in [3] (setting [22]); 0.78 in assay [4]; 0.16 in [5]. Also, the “logarithmic value of ratio of IC40 values” is 1.12 in assay [6]; −0.10 in [7]; −0.46 in assay [8]; 0.40 in assay [9]; 0.25 in [10]; 0.34 in [11]. Besides, the “logarithmic value of ratio of IC40 values” in assay [12] worked out at 1.15; in assay [13] it was 0.36; in assay [14], 0.54; in assay [15] it was 0.00; in assay [16], 0.00; in [17] it was 0.26. Moreover, the “logarithmic value of ratio of IC40 values” is on record as 0.00 in [18], 0.29 in assay [19] and 0.70 in assay [20].

Take `O=c1c(-c2ccc(O)cc2)coc2cc(O)cc(O)c12` [Genistein, genistein]: the “logarithmic value of ratio of IC40 values” is given as 0.30 in assay [1]; 0.00 in assay [2]; 0.16 in [3] (setting [21]); 0.24 in [3] (setting [22]); 0.44 in assay [4]; 0.32 in assay [5]. Also, the “logarithmic value of ratio of IC40 values” in assay [6] is reported as 0.04; in [7] it was 0.00; in [8], 0.00; in assay [9], 0.10; in assay [10] it was 0.18; in [11], −0.12. The “logarithmic value of ratio of IC40 values” in [12] was 0.234; in assay [13] it was 0.00; in [14], 0.42; in assay [15] it was −0.21; in assay [16] it was −0.15; in assay [17], −0.35. Further, the “logarithmic value of ratio of IC40 values” is −0.15 in assay [18], 0.21 in assay [19] and 0.40 in assay [20].

On to `CO[C@H]1[C@@H](OC)C[C@H](C)[C@@H](OC)C2=CC(=O)C=C(NC(=O)/C(C)=C/C=C\[C@H](OC)[C@@H](OC(N)=O)/C(C)=C/[C@@H]1C)C2=O` [HMA, herbimycin A], for which the “logarithmic value of ratio of IC40 values” in assay [1] is recorded as 0.10; in assay [2] it was 0.00; in assay [3] (setting [21]), 0.09; in assay [3] (setting [22]) it was −0.10; in [4], 0.42; in assay [5], 0.19. The “logarithmic value of ratio of IC40 values” in [6] is 0.08; in assay [7] it was −0.20; in assay [8], −0.05; in assay [9], 0.09; in [10], 0.00; in [11] it was 0.00. The “logarithmic value of ratio of IC40 values” is listed as 0.161 in [12]; −0.14 in assay [13]; 0.43 in assay [14]; −0.18 in [15]; 0.00 in assay [16]; −0.35 in [17]. Further, the “logarithmic value of ratio of IC40 values” in assay [18] was −0.08; in assay [19], 0.00; in assay [20] it was 0.41.

Regarding `COC(=O)[C@@]1(O)C[C@H]2O[C@]1(C)n1c3ccccc3c3c4c(c5c6ccccc6n2c5c31)C(=O)NC4` [K252a], the “logarithmic value of ratio of IC40 values” in assay [1] came out at 0.37; in assay [2], 0.07; in [3] (setting [21]) it was 0.16; in assay [3] (setting [22]) it was 0.02; in [4] it was 0.00; in assay [5], 0.10. The “logarithmic value of ratio of IC40 values” was 0.15 in assay [6]; −0.34 in [7]; −0.15 in assay [8]; 0.28 in assay [9]; 0.13 in assay [10]; 0.04 in [11]. Moreover, the “logarithmic value of ratio of IC40 values” is recorded as −0.207 in assay [12]; 0.15 in assay [13]; −0.16 in [14]; −0.21 in assay [15]; 0.04 in assay [16]; 0.65 in assay [17]. The “logarithmic value of ratio of IC40 values” in assay [18] is recorded as −0.22; in assay [19], −0.19; in assay [20] it was −0.22.

Source of the values: patent US20040086901A1, “Database for analyzing gene function and method of analyzing gene function by dspa” (priority 2000, published 2004).
